The text below walks through data of patent US20110237541A1, “TRANSDERMALLY ADMINISTERED ALISKIREN” (priority 2008, published 2011).

Structures are written as SMILES. Read-outs that look alike come from different tables or passages of the source.

Series [1] in a line: AUC of aliskiren after PO or TD delivery in telemetrized female dTG rats. It is filed as in vivo, rat. As to conditions: for AUC(0-t): double transgenic (dTG, human renin and angiotensin), rat, read-out: AUC24 h. On the procedure:
The rat was lightly sedated under 2.5% isoflurane anesthesia, and its back was shaved over a 4 cm^2 area.
After complete evaporation of the DMSO solution (within 5 min after application), an occlusive transparent, waterproof film (OpSite) was taped to the back of the animal over the shaved area, and a jacket was fitted on the animal. Isoflurane inhalation was stopped, and the animal individually caged.

The nature of series [2]: Bioavailability of aliskiren after oral and transdermal administration in Sprague-Dawley rats (plasma LC-MS/MS). The following applies: male SD rats; for AUC: Sprague-Dawley, rat, plasma. Format: in vivo, rat. On the procedure: Male Sprague-Dawley rats (300-400 g body weight) were purchased from Charles River Canada Corporation (188 Rue LaSalle, St-Constant, QC, J5A 1Y2, Canada). […] For oral dosing, aliskiren was dissolved in 0.5% methocel and administered via feeding tubes. The compound was dosed in a single bolus of 3 mg/5 ml/kg or 25 mg/5 ml/kg. For intravenous (IV) […] dosing, aliskiren was dissolved in 60% PEG 200 and administered in a single bolus at 0.5 mg/1 ml/kg. For transdermal delivery, aliskiren was dissolved in 100% DMSO, and applied (single application of 250 μl of solution) onto the shaved skin of the rat. The rat was lightly sedated under 2.5% isoflurane anesthesia, and its back was shaved over a 4 cm^2 area. The animal was returned to its cage to recover from anesthesia. Twenty-four hours later, the rat was lightly sedated under 2.5% isoflurane anesthesia, and the shaved area was disinfected with three passes of ethanol. After evaporation of the ethanol, a volume of […] of 100% DMSO only, or of the compound dissolved in a 100% DMSO solution was applied over the shaved area using a micropipette. After complete evaporation of the DMSO solution (within 5 min after application), an occlusive transparent, waterproof film (OpSite) was taped to the back of the animal over the shaved area, and a jacket was fitted on the animal. Isoflurane inhalation was stopped, and the animal individually caged. The jacket was removed four hours after application of the compound solution.
A blood sample (0.4 ml) was taken by tail or jugular vein bleed for the determination of compound levels, 1 h, 2 h, 4 h, 6 h, 8 h, 10 h and 24 h after either oral gavage or application on the skin of the compound dissolved in 100% DMSO solution. The animal was euthanized after the 24 h time point. […] The plasma was separated by centrifugation and stored at −20° C. pending analysis. Plasma samples were analyzed for aliskiren concentrations using liquid chromatography coupled to mass spectrometry (LC-MS/MS).

Series [3] concerns plasma renin activity (PRA). Nature of the series: Plasma renin activity (PRA) after TD delivery in double transgenic rats. It is filed as in vivo. The following applies: Rattus norvegicus, dTG rats, 4 h after delivery.
Method: Pharmacokinetics and biomarkers—A blood sample (0.3 ml) was taken by tail bleed or jugular intravenous 4 h and 24 h after TD delivery to determine compound levels and plasma renin activity (PRA).
Series [4] concerns female double transgenic (dtg) rats. The series can be described thus: Mean arterial pressure by telemetry in double transgenic rats. The following applies: for max MAP decrease: versus control group. It is filed as in vivo, rat. On the procedure: Female double transgenic (dtg) rats, which are transgenic for human renin and angiotensin (see, e.g., Bohlender et al., J AM SOC NEPHROL 11:2056 (2000)) were used. All animals were maintained under identical conditions and had free access to normal pelleted rat chow and water. Rats were initially treated with enalapril (1 mg/kg/day), starting 3 weeks after birth and continuing for 2 months. After approximately two weeks following cessation of enalapril treatment, the double transgenic rats are hypertensive, with mean arterial blood pressures in the range of 160-170 mmHg.
Transmitter implantation—The rats were anesthetized using isoflurane (via inhalation, 2-3%) The pressure transmitter was implanted under aseptic conditions into the peritoneal cavity with the sensing catheter placed in the descending aorta below the renal arteries pointing upstream. The transmitter was sutured to the abdominal musculature, the skin closed, and the rats were individually housed in a cage, placed on a telemetry receiver pad to enable collection of the blood pressure data during recovery from anesthesia and thereafter. The rats were singly caged for the duration of the recording of telemetry data.
Telemetry-System—Telemetry units were obtained from Data Sciences (St. Paul, Minn.). […] The tip of the catheter was filled with a viscous gel that prevents blood reflux and was coated with an antithrombogenic film. The implants (length=2.5 cm, diameter=1.2 cm) weighed 9 g and have a typical battery life of 6 months. A receiver platform (model RPC-1 from Data Sciences) connected the radio signal to digitized input that was sent to a dedicated personal computer. Arterial pressures were calibrated by using an input from an ambient-pressure reference (APR-1, Data Sciences). Systolic, mean, and diastolic blood pressures were expressed in millimeter of mercury (mmHg).
Drug administration—For oral dosing, aliskiren was dissolved in 0.5% methocel and administered via feeding tubes. The compound was dosed in a single bolus of 3 mg/5 ml/kg or 30 mg/5 ml/kg. After dosing, the rat was returned to the cage. Blood pressure data were collected up to 7 days after oral dosing.
For transdermal delivery, aliskiren was dissolved in 100% DMSO to be applied in a single application of 250 μl of solution. The rat was lightly sedated under 2.5% isoflurane anesthesia, and its back was shaved over a 4 cm^2 area. The animal was returned to the cage to recover from anesthesia. Twenty-four hours later, the rat was lightly sedated under 2.5% isoflurane anesthesia, and the shaved area disinfected with 3 passes of ethanol.
After evaporation of the ethanol, a volume of 250 μl of 100% DMSO only, or of the compound dissolved in a 100% DMSO solution was applied over the shaved area using a micropipette. After complete evaporation of the DMSO solution (within 5 min after application), an occlusive transparent, waterproof film (OpSite) was taped to the back of the animal over the shaved area, and a jacket was fitted on the animal. Isoflurane inhalation was stopped, and the animal individually caged. Blood pressure data was collected up to 5 days after application of the compound/DMSO solution.
Hemodynamic measurements—For oral delivery, double transgenic rats with implanted pressure transmitters were dosed by oral gavage with a single bolus of vehicle (5 ml/kg) or of the test substance (30 mg/5 ml/kg) (n=6 per group).
For transdermal delivery, double transgenic rats with implanted pressure transmitters were dosed with a single application of vehicle (250 μl of 100% DMSO; n=4) or of the test substance (10 mg in 250 μl of 100% DMSO, i.e. 36 mg/kg; n=5).
The mean arterial blood pressure was continuously monitored. The effect of the test substance is expressed as maximal decrease of mean arterial pressure (MAP) in the treated group versus the control group. […]

Setting [5] is: TD, 36 mg/kg single application.

`COCCCOc1cc(C[C@@H](C[C@H](N)[C@@H](O)C[C@H](C(=O)NCC(C)(C)C(N)=O)C(C)C)C(C)C)ccc1OC` [aliskiren, (2S,4S,5S,7S)-5-amino-N-(2-carbamoyl-2,2-dimethylethyl)-4-hydroxy-7-{[4-methoxy-3-(3-methoxypropoxy)phenyl]methyl}-8-methyl-2-(propan-2-yl)nonanamide]: the “increase of AUC, transdermal versus oral delivery” value in series [1] (at the dose used (TD 36 mg/kg vs PO 30 mg/kg)) turned out to be 70 fold. The AUC(0-t) is 1.5 µM·h in series [1] (blood, topical, TD, 36 mg/kg) and less than 0.021 µM·h in series [1] (in vivo, PO, 30 mg/kg). Besides, the AUC (usually the area under the concentration-time curve, a measure of exposure) in series [2] (topical, TD, 2.9 mg/kg) stood at 0.084 µM·h; in series [2] (topical, TD, 29 mg/kg), 0.25 µM·h; in series [2] (PO, 3 mg/kg), 0.0021 µM·h; in series [2] (PO, 25 mg/kg), 0.058 µM·h. The F is 0.1% in series [2] (PO, 3 mg/kg); 0.43% in series [2] (PO, 25 mg/kg); 5.4% in series [2] (TD, 2.9 mg/kg); 1.6% in series [2] (TD, 29 mg/kg). For the same molecule, at 36 mg/kg the inhibition in series [3] was 97%. The ABC36 h in series [4] (PO, 30 mg/kg single bolus) is given as 630 mmHg * hr; in series [4] (setting [5]), 1213 mmHg * hr. In addition, the “duration (of MAP reduction)” value in series [4] (PO, 30 mg/kg single bolus) is on record as 1.5 days; in series [4] (TD, 36 mg/kg single application, 36 mg/kg), more than 3 days. Besides, the “max MAP decrease” value is 40 mmHg in series [4] (PO, 30 mg/kg single bolus) and 40 mmHg in series [4] (setting [5]).
